Assay results taken from patent publication US20070213359A1 (ACADIA Pharmaceuticals Inc., priority 2005, published 2007).
Read-outs that look alike come from different tables or passages of the source.

Molecular target: Ghrelin receptor (Homo sapiens, UniProt Q92847)
Test: Receptor Selection and Amplification Technology (R-SAT) assay
Type: cell-based
Parameters: expressed in transfected cells; host or cells: NIH3T3
Conditions: for Emax: read-out: RSAT Eff(%)
[1] = negative logarithm of ligand concentration causing 50% inhibition of constitutive receptor response, transfected NIH3T3 cells, '—' not defined (nd used separately), read-out: RSAT pIC50 (converted)
[2] = percent inhibition at saturating ligand, normalized to reference ligand Substance P analog = 100%
[3] = […], '—' not defined (nd used separately), read-out: RSAT pIC50 (converted)

Ghrelin receptor, sequence (Q92847 whole entry): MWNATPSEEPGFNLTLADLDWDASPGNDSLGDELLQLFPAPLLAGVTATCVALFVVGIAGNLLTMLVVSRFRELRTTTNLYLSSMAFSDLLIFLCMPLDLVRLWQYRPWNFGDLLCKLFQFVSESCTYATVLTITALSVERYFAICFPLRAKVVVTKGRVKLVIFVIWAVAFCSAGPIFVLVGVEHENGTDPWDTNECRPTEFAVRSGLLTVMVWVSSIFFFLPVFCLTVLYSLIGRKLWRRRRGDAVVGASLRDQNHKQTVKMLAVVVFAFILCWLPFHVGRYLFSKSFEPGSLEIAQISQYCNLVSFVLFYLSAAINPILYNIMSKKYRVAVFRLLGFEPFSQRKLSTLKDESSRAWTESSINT

Compound: CCCCC(=O)c1cn(CCCN2CCC3c4cc(OC)ccc4NC3C2)c2ccc(OC)cc12 (centres unmarked)
- IC50 [1]: 126 nM
- Emax [2]: 91%

Compound: CC(=O)c1cn(CCCN2C3CCC2CC(CCc2ccccc2)C3)c2c(Cl)cccc12 (centres unmarked)
- IC50 [1]: 12.6 nM
- Emax [2]: 109%

Compound: CCc1cccc2c(C(C)=O)cn(CCCN3CCCN(CCc4ccccc4)CC3)c12
- IC50 [1]: 31.6 nM
- Emax [2]: 103%

Compound: COc1cccc2c(C(=O)NCc3cccc(C)c3)cn(CCCN3C4CCC3CC(CCc3ccc(Cl)cc3)C4)c12 (centres unmarked)
- IC50 [3]: 25.1 nM
- Emax: 77%

Compound: COc1cccc2c(C(=O)Cc3ccccc3)cn(CCCN3CCC(c4nc(-c5cccnc5)no4)CC3)c12
- IC50 (RSAT pIC50): 20 nM
- Emax: 88%

Compound: CC(=O)c1cn(CCCN2CCN(c3ncc(C(F)(F)F)cc3Cl)CC2)c2c(C#N)cccc12
- IC50 [1]: 79.4 nM
- Emax [2]: 106%

Compound: CCc1cccc2c(C(C)=O)cn(CCCN3CCC4(CC3)CC(=O)c3ccccc3O4)c12
- IC50 [3]: 126 nM
- Emax: 85%

Compound: CC(=O)c1cn(CCCNCCOc2ccccc2)c2c(Br)cccc12
- IC50 [3]: 50.1 nM
- Emax: 132%

Compound: COc1ccccc1C1CCN(CCCCn2cc(C(C)=O)c3ccccc32)CC1
- IC50 [1]: 2000 nM
- Emax [2]: 58%

Compound: CC(=O)c1cn(CCCN2CCC(Oc3ccccc3Cl)CC2)c2c(Cl)cccc12
- IC50 [1]: 251 nM
- Emax [2]: 97%

Compound: CC(=O)c1cn(CCCNCCOc2ccccc2)c2c(C)cccc12
- IC50 [1]: 39.8 nM
- Emax [2]: 100%

Compound: CC(=O)c1cn(CCCN2CCC(Oc3ccc(F)cc3)CC2)c2ccc(Br)cc12
- IC50 [1]: 158 nM
- Emax [2]: 75%

Compound: CC(=O)c1cn(CCCCN2CCC(O)(Cc3ccccc3)CC2)c2ccccc12
- Emax: 24%

Compound: CC(=O)c1cn(CCCN2CCC(c3nc(-c4cccnc4)no3)CC2)c2c(Cl)cccc12
- IC50 [1]: 631 nM
- Emax [2]: 101%

Compound: CC(=O)c1cn(CCCN2C3CCC2CC(CC(=O)c2ccc(Cl)cc2)C3)c2ncccc12 (centres unmarked)
- Emax [2]: 11%

Compound: COc1cccc2c(C#N)cn(CCCN3CCN(Cc4ccc(Cl)cc4Cl)CC3)c12
- Emax [2]: 30%

Compound: CC(=O)c1cn(CCCN2C3CCC2CC(CCc2ccc(Cl)cc2)C3)c2c(Br)cccc12 (centres unmarked)
- IC50 [1]: 39.8 nM
- Emax [2]: 106%

Compound: CC(=O)c1cn(CCCN2CCN(CCOc3ccc(Cl)cc3)CC2)c2c(Br)cccc12
- Emax: 12%

Compound: CC(=O)c1c(C)n(CCCN2CCC(Cc3ccccc3Cl)C2)c2c(Br)cccc12 (centres unmarked)
- Emax: 38%

Compound: CC(=O)c1c(C)n(CCCN2CCC(c3nc(-c4ccncc4)no3)CC2)c2c(Br)cccc12
- Emax: 25%

Compound: CC(=O)c1cn(CCCN2C3CCC2CC(OCC2CC2)C3)c2cc(Br)ccc12 (centres unmarked)
- IC50 [1]: 501 nM
- Emax [2]: 130%

Compound: CC(=O)c1c(C)n(CCCN2CCC(c3nc(-c4cccnc4)no3)CC2)c2c(Br)cccc12
- Emax: 12%

Compound: CCC(=O)c1cn(CCCN2CCN(C(C)c3ccccc3)CC2)c2ccccc12 (centres unmarked)
- IC50 [1]: 2510 nM
- Emax [2]: 57%

Compound: CC(=O)c1cn(CCCN2CCC(c3nc(-c4cccnc4)no3)CC2)c2c(Br)cccc12
- IC50 [1]: 39.8 nM
- Emax [2]: 119%

Compound: CC(=O)c1cn(CCCN2CCC(C(=O)c3ccccc3)CC2)c2ccc(Br)cc12
- IC50 [1]: 10000 nM
- Emax [2]: 60%

Compound: COc1cccc2c(C(C)=O)cn(CCCN3CCC(S(=O)(=O)c4ccc(Cl)cc4)CC3)c12
- IC50 [1]: 10000 nM
- Emax [2]: 71%

Compound: COc1cccc2c(C(C)=O)cn(CC(C)CN3CCC(CCOc4ccc(Cl)cc4)CC3)c12 (centres unmarked)
- Emax: 22%

Compound: COc1cccc2c(C(=O)NCC(C)C)cn(CCCN3CCN(CCOc4ccc(Cl)cc4)CC3)c12
- IC50 [1]: 63.1 nM
- RSAT Eff(%) [2]: 84%

Compound: COc1cccc2c(C(=O)NCc3cccc(C)c3)cn(CCCN3CCN(c4ncc(C(F)(F)F)cc4Cl)CC3)c12
- IC50 [3]: 39.8 nM
- Emax: 80%

Compound: O=C(c1cn(CCCN2CCC(Oc3cccc(Cl)c3)CC2)c2ncccc12)C(F)(F)F
- Emax [2]: 23%

Compound: COc1cccc2c(C(=O)NCc3cccc(C)c3)cn(CCCN3CCC(Oc4cccc(Cl)c4)CC3)c12
- IC50 [1]: 31.6 nM
- Emax: 93%

Compound: COc1cccc2c(C(=O)NCc3cccc(C)c3)cn(CCCN3CCC(N4C(=O)Cc5ccccc54)CC3)c12
- RSAT Eff(%): 43%
- IC50 [3]: 2000 nM

Compound: CC(=O)c1cn(CCCN2CCCC(Oc3ccc(Cl)cc3)C2)c2c(Br)cccc12 (centres unmarked)
- IC50 [1]: 1260 nM
- Emax [2]: 46%

Compound: COc1ccc2[nH]c3c(c2c1)CCN(CCCn1cc(C(=O)CC(C)C)c2ccccc21)C3
- IC50 [1]: 1000 nM
- Emax: 123%

Compound: COc1cccc2c(C(=O)C3CC3)cn(CCCN3CCC(Oc4ccc(Cl)cc4)CC3)c12
- IC50 [3]: 501 nM
- Emax: 90%

Compound: COc1cccc2c(C(=O)C3CC3)cn(CCCN3C4CCC3CC(Oc3ccc(F)cc3)C4)c12 (centres unmarked)
- IC50 [3]: 63.1 nM
- Emax: 131%

Compound: COc1cccc2c(C#N)cn(CCCN3CCCN(Cc4ccc(F)cc4)CC3)c12
- IC50 [1]: 15.8 nM
- Emax [2]: 109%

Compound: CC(=O)c1cn(CCCN2CCC(CCOc3ccc(Cl)cc3)CC2)c2c(Cl)cccc12
- Emax: 53%

Compound: CC(=O)c1cn(CCCCN2CCC(Cc3ccccc3)CC2)c2ccccc12
- IC50 [1]: 3980 nM
- Emax [2]: 86%

Compound: COc1cccc2c(C(=O)C3CC3)cn(CCCN3CCC(c4nc(-c5cccnc5)no4)CC3)c12
- IC50 [3]: 39.8 nM
- Emax: 96%

Compound: CCCCC(=O)c1cn(CCCN2CCC(Oc3ccccc3Cl)CC2)c2ccc(OC)cc12
- IC50 [1]: 251 nM
- Emax [2]: 92%

Compound: CCc1cccc2c(C(C)=O)cn(CCCN3CCC(c4nc(-c5cccnc5)no4)CC3)c12
- Emax: 61%

Compound: COc1cccc2c(C#N)cn(CCCN3CCN(c4ncc(C(F)(F)F)cc4Cl)CC3)c12
- IC50 [1]: 398 nM
- Emax [2]: 97%

Compound: O=C(c1ccccc1)C1CCN(CCCn2cc(C(=O)C(F)(F)F)c3ccccc32)CC1
- IC50 [1]: 631 nM
- Emax [2]: 63%

Compound: CC(=O)c1cn(CCCN2CCN(CCOc3ccc(Cl)cc3)CC2)c2ncccc12
- Emax [2]: 62%

Compound: CC(=O)c1cn(CCCN2CCN(CCOc3ccc(Cl)cc3)CC2)c2c(C#N)cccc12
- Emax: 4%

Compound: CCC(=O)c1cn(CCCN2CCC(c3nc4ccccc4s3)CC2)c2ccccc12
- IC50 [1]: 158 nM
- Emax [2]: 104%

Compound: COc1cccc2c(C(C)=O)cn(CC(C)CN3CCC(c4nc(-c5cccnc5)no4)CC3)c12 (centres unmarked)
- Emax: 83%

Compound: CC(=O)c1cn(CCCN2CCC(Oc3ccc(Cl)cc3)CC2)c2c(Cl)cccc12
- IC50 [1]: 2000 nM
- Emax [2]: 107%

Compound: COc1ccc2c(C(C)=O)cn(CCCN3CCC(Oc4ccc(Cl)cc4)CC3)c2c1
- IC50 [1]: 398 nM
- Emax [2]: 67%

Compound: COc1cccc2c(C(=O)Cc3ccccc3)cn(CCCN3CCN(Cc4ccc(Cl)cc4Cl)CC3)c12
- IC50 [3]: 2 nM
- Emax: 76%

Compound: COc1cccc2c(C(=O)NCc3cccc(Cl)c3)cn(CCCN3CCC(Oc4ccc(F)cc4)CC3)c12
- IC50 [3]: 316 nM
- Emax: 106%

Compound: COc1ccc2c(c1)c(C(C)=O)cn2CCCN1C2CCC1CC(Oc1ccc(Cl)cc1)C2 (centres unmarked)
- IC50 [1]: 1260 nM
- Emax [2]: 105%

Compound: CCC(=O)c1cn(CCCN2CCC(O)(Cc3ccccc3)CC2)c2ccccc12
- IC50 [3]: 1000 nM
- Emax: 73%

Compound: COc1cccc2c(C#N)cn(CCCN3CCC4(CC3)CC(=O)c3ccccc3O4)c12
- Emax [2]: 41%

Compound: CC(=O)c1cn(CCCN2CCCN(Cc3ccc(F)cc3)CC2)c2c(Cl)cccc12
- IC50 [1]: 7.94 nM
- Emax [2]: 115%

Compound: CC(=O)c1cn(CC(C)CN2CCC(C(=O)c3ccccc3)CC2)c2ccccc12 (centres unmarked)
- Emax: 2%

Compound: COc1cccc2c(C(=O)NCc3cccc(Cl)c3)cn(CCCN3C4CCC3CC(CCc3ccc(Cl)cc3)C4)c12 (centres unmarked)
- IC50 [3]: 0.794 nM
- Emax: 127%

Compound: COc1cccc2c(C(=O)NCc3cccc(C)c3)cn(CCCN3CCN(CCOc4ccc(Cl)c5ccccc45)CC3)c12
- Emax: 2%

Compound: COc1cccc2c(C#N)cn(CCCN3CCC(CCOc4ccc(Cl)cc4)CC3)c12
- Emax [2]: -3%

Compound: O=C(c1cn(CCCN2CCC(S(=O)(=O)c3ccc(Cl)cc3)CC2)c2ccccc12)C(F)(F)F
- Emax: 6%

Compound: COc1cccc2c(C(=O)NCc3cccc(Cl)c3)cn(CCCN3C4CCC3CC(CC(=O)c3ccc(Cl)cc3)C4)c12 (centres unmarked)
- IC50 [3]: 316 nM
- Emax: 76%

Compound: COc1cccc2c(C(C)=O)cn(CC(C)CN3CCN(Cc4ccc(Cl)cc4Cl)CC3)c12 (centres unmarked)
- IC50 [1]: 200 nM
- Emax [2]: 78%

Compound: O=C(c1cn(CCCN2CCC(O)(Cc3ccccc3)CC2)c2ccccc12)C(F)(F)F
- IC50 [1]: 3980 nM
- Emax [2]: 111%

Compound: COc1cccc2c(C(=O)C3CC3)cn(CCCN3CCN(CCOc4ccc(Cl)c5ccccc45)CC3)c12
- Emax: 44%

Compound: CC(=O)c1cn(CCCN2CCCN(Cc3ccccc3Cl)CC2)c2c(C)cccc12
- IC50 [1]: 1.26 nM
- Emax [2]: 111%

Compound: CC(=O)c1cn(CCCN2C3CCC2CC(Oc2ccc(Cl)cc2)C3)c2ccccc12 (centres unmarked)
- IC50 [3]: 501 nM
- Emax: 108%

Compound: CC(=O)c1cn(CCCN2CCC(N3C(=O)Cc4ccccc43)CC2)c2c(C#N)cccc12
- RSAT Eff(%): 133%
- IC50 [3]: 20 nM

Compound: CC(=O)c1cn(CCCN2CCCC(Cc3ccccc3Cl)C2)c2c(C)cccc12 (centres unmarked)
- Emax: 38%

Compound: COc1cccc2c(C(=O)NCC(C)C)cn(CCCN3CCN(c4ncc(C(F)(F)F)cc4Cl)CC3)c12
- IC50 [3]: 31.6 nM
- Emax: 100%

Compound: COc1cccc2c(C(=O)C3CC3)cn(CCCN3C4CCC3CC(CC(=O)c3ccccc3)C4)c12 (centres unmarked)
- IC50 [3]: 2000 nM
- Emax: 86%

Compound: COc1cccc2c(C(C)=O)cn(CCCN3CCC(C#N)(c4ccccc4)CC3)c12
- IC50 (RSAT pIC50): 200 nM
- Emax: 101%

Compound: COc1cccc2c(C(=O)NCc3cccc(Cl)c3)cn(CCCN3CCN(c4ncc(C(F)(F)F)cc4Cl)CC3)c12
- IC50 [3]: 39.8 nM
- Emax: 107%
